Data published in patent publication US20140050668A1, “VISUALIZATION OF LIPID METABOLISM” (UNIVERSITAETSKLINIKUM HAMBURG-EPPENDORF, priority 2011, published 2014).
Entries after “also recorded” stand apart in the source; their conditions may differ.

What was measured:
LPL [1] = molecular target: T1, LPL (Mus musculus, UniProt P11152); assay: Organ distribution of 59Fe-SPIO- and 3H-triolein-labeled TRL after pre-injection of THL or heparin; format: in vivo; settings: cold FVB mice; for uptake of 3H-triolein into BAT / uptake of 59Fe-SPIO into BAT: pre-injected 1 min before radiolabeled TRL i.v., organs 15 min after injection
T1 construct: from tissue; host or cells: living wild-type FVB mice (in vivo; endothelium of BAT, heart and other lipid-consuming tissues)
T1 sequence (P11152 28-474): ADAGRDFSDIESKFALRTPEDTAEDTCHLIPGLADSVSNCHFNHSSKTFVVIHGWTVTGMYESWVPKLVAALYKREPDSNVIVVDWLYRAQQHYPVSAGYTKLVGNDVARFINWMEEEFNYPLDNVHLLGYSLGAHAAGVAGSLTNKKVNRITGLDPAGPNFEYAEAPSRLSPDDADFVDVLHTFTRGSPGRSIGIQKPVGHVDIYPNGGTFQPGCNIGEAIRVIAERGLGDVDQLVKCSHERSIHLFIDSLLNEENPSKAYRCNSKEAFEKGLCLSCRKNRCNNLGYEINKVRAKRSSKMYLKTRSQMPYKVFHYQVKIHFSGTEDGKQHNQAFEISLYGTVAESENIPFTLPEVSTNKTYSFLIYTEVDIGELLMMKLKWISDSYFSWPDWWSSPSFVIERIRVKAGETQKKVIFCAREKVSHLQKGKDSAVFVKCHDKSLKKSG
Description: (§1) Turnover studies and organ distribution. For turnover studies, anesthetized mice were tail vein injected with 200 μl radiolabeled TRL. Lipoprotein turnover was determined from 10 μl plasma 0.5, 1, 2, 5 and 15 min after injection. After 15 min, blood was removed by cardiac puncture, the right atrium was opened, and the carcass was perfused through the left ventricle with PBS containing 50 U mL^1 heparin. Then, organs were harvested and weighed. For measurement of radioactivity, organs were solubilized in Solvable (PerkinElmer, Boston, USA, 0.1 mL per 10 mg organ), 200 μL were counted in scintillation fluid and TRL uptake was calculated as c.p.m. per mg organ. Oral fat tolerance tests were performed by gavage of 100 μL olive oil with [9,10-^3H(N)]-triolein (370 KBq per mouse). To measure lipoprotein production triton WR-1339 (Tyloxapol from Sigma; 0.5 mg per g body weight as 10% solution in PBS) was injected into the tail vein. Plasma was collected at indicated time points. For the measurement of hepatic production 1(3)-^3H glycerol (125 KBq per mouse) was injected prior to triton WR-1339. Lipids were extracted from plasma samples and ^3H-glycerol incorporated into triglycerides was measured as described above. For chylomicron production mice received ^3H-triolein in olive oil by gavage as described above directly after triton WR-1339 injection. Intestine-derived radioactivity in plasma was measured as described above. For manipulation of LPL function, THL (Roche, 12.5 mg ml^−1 DMSO) was diluted to 1.25 mg ml^−1 in 10% DMSO in PBS. Mice received 200 μL of either 0.25 mg THL, 50 U heparin (ratiopharm) or 10% DMSO in PBS (mock). After 1 min ^59Fe-SPIO- and ^3H-triolein-labeled TRL were injected and plasma clearance and organ uptake were determined as described above. For postprandial studies mice were i.p. injected with 0.25 mg THL or mock solution prior to gavage of 200 μL olive oil. Blood was collected at indicated time points and plasma triglyceride levels were determined.

LPL [2] = molecular target: T1, LPL; assay: MRI of SPIO-nanosome uptake after pre-injection of THL, heparin or chylomicrons; format: in vivo, mice; settings: for uptake of SPIO-nanosomes into BAT, T2*-weighted MRI: cold-exposed FVB mice, pre-injection 1 min before SPIO-nanosomes
Description: Animals and diets. All experimental procedures were performed with approval from the animal care committees responsible for the University Medical Center Hamburg-Eppendorf. Animals were housed at 22° C. with ad libitum access to standard laboratory chow diet. We used male and female age-matched (16-22 weeks) FVB wildtype mice which were fasted 24 h or 4 h prior to the experiment. Fasting (22° C.) and cold exposure (4° C.) was performed in single cages for 24 h unless indicated otherwise.
For manipulation of LPL function, THL (Roche, 12.5 mg ml^−1 DMSO) was diluted to 1.25 mg ml^−1 in 10% DMSO in PBS. Mice received 200 μL of either 0.25 mg THL, 50 U heparin (ratiopharm) or PBS (mock). After 1 min, SPIO-nanosomes were injected, and plasma clearance and organ uptake were determined by dynamic MRI.
In vivo imaging studies. MRI was performed as described before^14. Briefly, all static and dynamic MRI measurements were performed with a clinical 3 Tesla MR scanner (Philips Medical Systems, Netherlands) equipped with a custom-made small animal solenoid coil. The dynamic measurements were based on a gradient-echo sequence (Supplementary table 3). The applied sequence is highly sensitive to susceptibility effects caused by local magnetic field inhomogeneities caused by SPIO-TRL. DICOM data were processed with ImageJ (http://rsbweb.nih.gov/ij/). SPIO-nanosomes were injected via a tail vein catheter.

BAT = assay: Intravital confocal imaging of fluorescent-labeled TRL in BAT; format: in vivo, mice
Description: In vivo imaging studies. MRI was performed as described before. Briefly, all static and dynamic MRI measurements were performed with a clinical 3 Tesla MR scanner (Philips Medical Systems, Netherlands) equipped with a custom-made small animal solenoid coil. The dynamic measurements were based on a gradient-echo sequence (Supplementary table 3). The applied sequence is highly sensitive to susceptibility effects caused by local magnetic field inhomogeneities caused by SPIO-TRL. DICOM data were processed with Image (http://rsbweb.nih.gov/ij/). For cryo electron microscopy, SPIO-TRL were intravenously injected into control or cold wild-type FVB mice. After 30 min mice were sacrificed, BAT biopsies were taken and processed for transmission electron microscopy (TEM) as described. Micrographs were obtained with a FBI Eagle 4k CCD camera and a Technal 20 TEM operated at 200 kV. For environmental scanning electron microscopy studies of BAT anaesthetized mice were perfused with PBS-Heparin as above and organs were fixed with 2.5% glutaraldehyde in PBS, washed, and postfixed for 30 min with 1% […] in PBS. For intravital microscopy interscapular BAT was dissected in anaesthetized mice and visualized by a confocal microscope equipped with a resonant scanner (Nikon AIR). QD-labeled TRL and fluorescent probes were injected via a tail vein catheter and 15 or 30 confocal images per second were recorded. The acquired data sets were aligned to reduce object movements due to mouse breathing and denoised with a Savitzky-Golay filter in Nikon NIS Elements AR 3.10. Labeling, animations and quicktime-export were done with Adobe After Effects CS4.

LPL [3] = molecular target: T1, LPL; assay: Oral fat tolerance test in cold mice pre-treated with THL; format: in vivo; settings: cold FVB mice; i.p. pre-treatment; versus mock-treated cold mice (no increase)
Description: as §1, with “For chylomicron production mice received ^3H-triolein in olive oil by gavage as described above directly after triton WR-1339 injection.” left out, “For manipulation of LPL function, THL (Roche, 12.5 mg ml^−1 DMSO) was diluted to 1.25 mg ml^−1 in 10% DMSO in PBS. Mice received 200 μL of either 0.25 mg THL, 50 U heparin (ratiopharm) or 10% DMSO in PBS (mock). After 1 min ^59Fe-SPIO- and ^3H-triolein-labeled TRL were injected and plasma clearance and organ uptake were determined as described above. For postprandial studies mice were i.p. injected with 0.25 mg THL or mock solution prior to gavage of 200 μL olive oil.” left out

| uptake of 3H-triolein into BAT (LPL [1]) | uptake of 59Fe-SPIO into BAT (LPL [1]) | uptake of SPIO-nanosomes into BAT, T2*-weighted MRI (LPL [2]) | binding of a second bolus of TRL (BAT; time-delayed heparin injection) | uptake of TRL into the heart (LPL [1]; pre-injected before radiolabeled TRL) | uptake of SPIO-nanosomes into the heart (myocard), T2*-weighted MRI (LPL [2]; 24 h fasted FVB mice, inhibitor injected 1 min before SPIO-nanosomes) | Molecule | fluorescent-labeled TRL initially bound to the vascular wall (BAT; heparin after initial TRL binding) | already internalized TRL particles (BAT; time-delayed heparin injection) | plasma triglycerides after lipid gavage (LPL [3]) |
| --- | --- | --- | --- | --- | --- | --- | --- | --- | --- |
| blocked | blocked | blocked | blocked | – | – | heparin | released | no influence | – |
| abolished | abolished | not enhanced; also recorded: abolished | – | inhibited | not enhanced; also recorded: abolished | CCCCCCCCCCC[C@@H](C[C@@H]1OC(=O)[C@H]1CCCCCC)OC(=O)[C@H](CC(C)C)NC=O [THL, Tetrahydrolipstatin] | – | – | significant postprandial triglyceride response |
